Converted amounts (≈) assume the structure as drawn.
What was measured:
[1] = tested on: Staphylococcus aureus (ATCC 29213); experiment: Antibiotic susceptibility by glucose consumption in culture medium, blood culture bottle inoculum (Example 1); assay type: cell-based; details: for Glucose concentration t=0: 0 minutes; for Glucose concentration t=60: 60 minutes; for Glucose concentration t=120: 120 minutes; for Glucose concentration t=180: 180 minutes; for Glucose concentration t=240: 240 minutes; for dC/dT: rate of change in glucose concentration;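 for dC/dT: rate calculated between the 60 and 180 min readings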
Description: (§1) Strains of Escherichia coli (ATCC 25922), Enterococcus faecalis (ATCC 29212) and Staphylococcus aureus (ATCC 29213) were inoculated in blood culture bottles (SVA, Uppsala, Sweden) and cultivated according to the manufacturer's instructions until positive.
(§2) Medium from each blood culture bottle was diluted 1:100 with cation adjusted Mueller-Hinton broth (SVA, Uppsala, Sweden) supplemented with glucose to a concentration of 1.0 mg/mL.
(§3) Table 1: Concentrations of antibiotic agents are given in µg/mL.
(§4) Glucose concentrations were measured at 0, 60, 120, 180, and 240 minutes using a WaveSense Jazz glucometer (AgaMatrix, Inc., Salem, NH, USA) with accompanying test strips.
(§5) Susceptibility scores corresponding to MIC values were calculated as described above. A 80% threshold was applied, i.e. the lowest concentration of antibiotic that entailed a rate of change in glucose concentration that was equal to or less than 80% of the reference was selected as the Minimal Inhibitory Concentration. The rate of change was calculated between the measurements at 60 and 180 minutes.

[2] = tested on: Enterococcus faecalis (ATCC 29212); experiment: as above; assay type: cell-based; details: for Glucose concentration t=0: 0 minutes; for Glucose concentration t=60: 60 minutes; for Glucose concentration t=120: 120 minutes; for Glucose concentration t=180: 180 minutes; for Glucose concentration t=240: 240 minutes; for dC/dT: rate of change in glucose concentration;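 for dC/dT: rate calculated between the 60 and 180 min readings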
Description: as §1, §2, §3, §4, §5

[3] = tested on: Staphylococcus aureus ATCC 29213; details: S.aureus, cited from earlier work

MIC ([1]; Staphylococcus aureus, ATCC29213, S.aureus, 80% threshold of rate of change vs reference, between 60 and 180 minutes, obtained in 4 hours, read-out: MIC Measured): 2 µg/mL (≈ 4.68 µM) | MIC ([2]; Enterococcus faecalis, ATCC29212, E.faecalis, initial value, disregarded because rate of decrease was higher at 32 µg/mL, read-out: MIC value initially obtained): 4 µg/mL (≈ 9.36 µM)
Compound: CO[C@@]1(NC(=O)Cc2cccs2)C(=O)N2C(C(=O)O)=C(COC(N)=O)CS[C@@H]21 [Cefoxitin]
F=the rate of change in glucose concentration in relation to the reference ([1]; [Ab] 0,5 µg/mL): 96% | Glucose concentration t=0 ([1]; [Ab] 0,5 µg/mL): 144 | Glucose concentration t=60 ([1]; [Ab] 0,5 µg/mL): 155 | Glucose concentration t=120 ([1]; [Ab] 0,5 µg/mL): 130 | Glucose concentration t=180 ([1]; [Ab] 0,5 µg/mL): 91 | Glucose concentration t=240 ([1]; [Ab] 0,5 µg/mL): 32 | dC/dT ([1]; [Ab] 0,5 µg/mL): 32 | F=the rate of change in glucose concentration in relation to the reference ([1]; [Ab] 0,25 µg/mL): 91% | Glucose concentration t=0 ([1]; [Ab] 0,25 µg/mL): 143 | Glucose concentration t=60 ([1]; [Ab] 0,25 µg/mL): 152 | Glucose concentration t=120 ([1]; [Ab] 0,25 µg/mL): 132 | Glucose concentration t=180 ([1]; [Ab] 0,25 µg/mL): 91 | Glucose concentration t=240 ([1]; [Ab] 0,25 µg/mL): 33 | dC/dT ([1]; [Ab] 0,25 µg/mL): 31 | F=the rate of change in glucose concentration in relation to the reference ([1]; [Ab] 1 µg/mL): 82% | Glucose concentration t=0 ([1]; [Ab] 1 µg/mL): 147 | Glucose concentration t=60 ([1]; [Ab] 1 µg/mL): 155 | Glucose concentration t=120 ([1]; [Ab] 1 µg/mL): 133 | Glucose concentration t=180 ([1]; [Ab] 1 µg/mL): 100 | Glucose concentration t=240 ([1]; [Ab] 1 µg/mL): 40 | dC/dT ([1]; [Ab] 1 µg/mL): 28 | F=the rate of change in glucose concentration in relation to the reference ([1]; [Ab] 2 µg/mL): 72% | Glucose concentration t=0 ([1]; [Ab] 2 µg/mL): 141 | Glucose concentration t=60 ([1]; [Ab] 2 µg/mL): 146 | Glucose concentration t=120 ([1]; [Ab] 2 µg/mL): 143 | Glucose concentration t=180 ([1]; [Ab] 2 µg/mL): 98 | Glucose concentration t=240 ([1]; [Ab] 2 µg/mL): 61 | dC/dT ([1]; [Ab] 2 µg/mL): 24 | F=the rate of change in glucose concentration in relation to the reference ([1]; [Ab] 4 µg/mL): 16% | Glucose concentration t=0 ([1]; [Ab] 4 µg/mL): 142 | Glucose concentration t=60 ([1]; [Ab] 4 µg/mL): 150 | Glucose concentration t=120 ([1]; [Ab] 4 µg/mL): 143 | Glucose concentration t=180 ([1]; [Ab] 4 µg/mL): 139 | Glucose concentration t=240 ([1]; [Ab] 4 µg/mL): 139 | dC/dT ([1]; [Ab] 4 µg/mL): 6 | F=the rate of change in glucose concentration in relation to the reference ([1]; [Ab] 8 µg/mL): 24% | Glucose concentration t=0 ([1]; [Ab] 8 µg/mL): 136 | Glucose concentration t=60 ([1]; [Ab] 8 µg/mL): 157 | Glucose concentration t=120 ([1]; [Ab] 8 µg/mL): 160 | Glucose concentration t=180 ([1]; [Ab] 8 µg/mL): 141 | Glucose concentration t=240 ([1]; [Ab] 8 µg/mL): 149 | dC/dT ([1]; [Ab] 8 µg/mL): 8 | F=the rate of change in glucose concentration in relation to the reference ([1]; [Ab] 16 µg/mL): 22% | Glucose concentration t=0 ([1]; [Ab] 16 µg/mL): 140 | Glucose concentration t=60 ([1]; [Ab] 16 µg/mL): 157 | Glucose concentration t=120 ([1]; [Ab] 16 µg/mL): 152 | Glucose concentration t=180 ([1]; [Ab] 16 µg/mL): 142 | Glucose concentration t=240 ([1]; [Ab] 16 µg/mL): 142 | dC/dT ([1]; [Ab] 16 µg/mL): 8 | F=the rate of change in glucose concentration in relation to the reference ([1]; [Ab] 32 µg/mL): 27% | Glucose concentration t=0 ([1]; [Ab] 32 µg/mL): 145 | Glucose concentration t=60 ([1]; [Ab] 32 µg/mL): 154 | Glucose concentration t=120 ([1]; [Ab] 32 µg/mL): 145 | Glucose concentration t=180 ([1]; [Ab] 32 µg/mL): 136 | Glucose concentration t=240 ([1]; [Ab] 32 µg/mL): 139 | dC/dT ([1]; [Ab] 32 µg/mL): 9 | F=the rate of change in glucose concentration in relation to the reference ([2]; [Ab] 0,5 µg/mL): 88% | Glucose concentration t=0 ([2]; [Ab] 0,5 µg/mL): 145 | Glucose concentration t=60 ([2]; [Ab] 0,5 µg/mL): 150 | Glucose concentration t=120 ([2]; [Ab] 0,5 µg/mL): 144 | Glucose concentration t=180 ([2]; [Ab] 0,5 µg/mL): 87 | Glucose concentration t=240 ([2]; [Ab] 0,5 µg/mL): 32 | dC/dT ([2]; [Ab] 0,5 µg/mL): 32 | F=the rate of change in glucose concentration in relation to the reference ([2]; [Ab] 0,25 µg/mL): 93% | Glucose concentration t=0 ([2]; [Ab] 0,25 µg/mL): 151 | Glucose concentration t=60 ([2]; [Ab] 0,25 µg/mL): 155 | Glucose concentration t=120 ([2]; [Ab] 0,25 µg/mL): 138 | Glucose concentration t=180 ([2]; [Ab] 0,25 µg/mL): 88 | Glucose concentration t=240 ([2]; [Ab] 0,25 µg/mL): 34 | dC/dT ([2]; [Ab] 0,25 µg/mL): 34 | F=the rate of change in glucose concentration in relation to the reference ([2]; [Ab] 1 µg/mL): 85% | Glucose concentration t=0 ([2]; [Ab] 1 µg/mL): 148 | Glucose concentration t=60 ([2]; [Ab] 1 µg/mL): 159 | Glucose concentration t=120 ([2]; [Ab] 1 µg/mL): 142 | Glucose concentration t=180 ([2]; [Ab] 1 µg/mL): 98 | Glucose concentration t=240 ([2]; [Ab] 1 µg/mL): 31 | dC/dT ([2]; [Ab] 1 µg/mL): 31 | F=the rate of change in glucose concentration in relation to the reference ([2]; [Ab] 2 µg/mL): 99% | Glucose concentration t=0 ([2]; [Ab] 2 µg/mL): 149 | Glucose concentration t=60 ([2]; [Ab] 2 µg/mL): 169 | Glucose concentration t=120 ([2]; [Ab] 2 µg/mL): 145 | Glucose concentration t=180 ([2]; [Ab] 2 µg/mL): 98 | Glucose concentration t=240 ([2]; [Ab] 2 µg/mL): 36 | dC/dT ([2]; [Ab] 2 µg/mL): 36 | F=the rate of change in glucose concentration in relation to the reference ([2]; [Ab] 4 µg/mL): 74% | Glucose concentration t=0 ([2]; [Ab] 4 µg/mL): 150 | Glucose concentration t=60 ([2]; [Ab] 4 µg/mL): 159 | Glucose concentration t=120 ([2]; [Ab] 4 µg/mL): 146 | Glucose concentration t=180 ([2]; [Ab] 4 µg/mL): 106 | Glucose concentration t=240 ([2]; [Ab] 4 µg/mL): 27 | dC/dT ([2]; [Ab] 4 µg/mL): 27 | F=the rate of change in glucose concentration in relation to the reference ([2]; [Ab] 8 µg/mL): 63% | Glucose concentration t=0 ([2]; [Ab] 8 µg/mL): 144 | Glucose concentration t=60 ([2]; [Ab] 8 µg/mL): 149 | Glucose concentration t=120 ([2]; [Ab] 8 µg/mL): 147 | Glucose concentration t=180 ([2]; [Ab] 8 µg/mL): 104 | Glucose concentration t=240 ([2]; [Ab] 8 µg/mL): 23 | dC/dT ([2]; [Ab] 8 µg/mL): 23 | F=the rate of change in glucose concentration in relation to the reference ([2]; [Ab] 16 µg/mL): 68% | Glucose concentration t=0 ([2]; [Ab] 16 µg/mL): 148 | Glucose concentration t=60 ([2]; [Ab] 16 µg/mL): 154 | Glucose concentration t=120 ([2]; [Ab] 16 µg/mL): 148 | Glucose concentration t=180 ([2]; [Ab] 16 µg/mL): 105 | Glucose concentration t=240 ([2]; [Ab] 16 µg/mL): 25 | dC/dT ([2]; [Ab] 16 µg/mL): 25 | F=the rate of change in glucose concentration in relation to the reference ([2]; [Ab] 32 µg/mL): 74% | Glucose concentration t=0 ([2]; [Ab] 32 µg/mL): 148 | Glucose concentration t=60 ([2]; [Ab] 32 µg/mL): 155 | Glucose concentration t=120 ([2]; [Ab] 32 µg/mL): 140 | Glucose concentration t=180 ([2]; [Ab] 32 µg/mL): 102 | Glucose concentration t=240 ([2]; [Ab] 32 µg/mL): 27 | dC/dT ([2]; [Ab] 32 µg/mL): 27 | MIC EUCAST, range in parentheses ([3]; range obtained by EUCAST from ISO 20776-1: 2006): 1 to 4 µg/mL | MIC EUCAST ([3]; reference MIC value, EUCAST QC tables Version 7.0, 2017): 2 µg/mL (≈ 4.68 µM)

Source: patent EP3717657B1, “A SYSTEM FOR ASSESSING MICROBIAL SUSCEPTIBILITY TO ANTIBIOTIC AGENTS” (Ascilion AB, priority 2017, dated 2019)
